Values quoted from earlier work in PubChem BioAssay AID1259409 (Chemical Carcinogenesis Research Information System (CCRIS), 2018).
Where a SMILES comes first, the peptide text is derived from it.

Test system: rodent chemically induced tumor inhibition, incidence and multiplicity
Assay: CCRIS tumor inhibitor studies

Q: For `CC(C)NCC(O)COc1cccc2ccccc12` (stereo not given), which “tumour outcome (control, treated, inhibition, significance)” value (Carcinogen: 4-(METHYLNITROSAMINO)-1-(3-PYRIDYL)-1-BUTANONE [64091-91-4], Dose [Inhibitor]: 3 MG/KG BW 3X/WK FOR 20 WK IMMEDIATELY PRIOR TO EACH CARCINOGEN DOSE (STUDY DURATION: 52 WK), Route [Inhibitor]: SUBCUTANEOUS, Species: HAMSTER, Strain/Sex: SYRIAN/MALE, Target Tissue: Type of Lesion: LUNG: TUMOR, Dose [Carcinogen]: 10 MG/KG BW 3X/WK FOR 20 WK (STUDY DURATION: 52 WK), Promoter: NONE) is on record?
A: 12/15 (80.0%), 6/15 (40%), 50%, not calculated

Q: And the “tumour outcome (control, treated, inhibition, significance)” value (Carcinogen: 4-(METHYLNITROSAMINO)-1-(3-PYRIDYL)-1-BUTANONE [64091-91-4], Dose [Inhibitor]: 3 MG/KG BW 3X/WK FOR 20 WK IMMEDIATELY PRIOR TO EACH CARCINOGEN DOSE (STUDY DURATION: 52 WK), Route [Inhibitor]: SUBCUTANEOUS, Species: HAMSTER, Strain/Sex: SYRIAN/MALE, Target Tissue: Type of Lesion: NASAL CAVITY: TUMOR, Dose [Carcinogen]: 10 MG/KG BW 3X/WK FOR 20 WK (STUDY DURATION: 52 WK), Promoter: NONE)?
A: 4/15 (26.7%), 4/15 (26.7%), 0%, not calculated

Q: What about the outcome (Carcinogen: 4-(Methylnitrosamino)-1-(3-pyridyl)-1-butanone, Dose [Inhibitor]: 0.3 mg/100 g bw, 5 x a wk from offspring age of 4 wks-8 mo., Route [Inhibitor]: Subcutaneous injection, Species: Hamster, Strain/Sex: Syrian golden, male and female offspring, Target Tissue: Type of Lesion: Pancreas: Tumor (in offspring), Dose [Carcinogen]: 50 mg/kg once to dams on day 15 of pregnancy, Promoter: Ethanol) of the same compound?
A: 66.6%, 8.3%

Q: And the “tumour outcome (control, treated, inhibition, significance)” value (Carcinogen: N-METHYL-N'-NITRO-N-NITROSOGUANIDINE, 70-25-7, Dose [Inhibitor]: 0, 5 MG/KG IN OLIVE OIL SUSPENSION 1/D BEGINNING 1 WK POST LAST CARCINOGEN DOSE AND CONTINUING FOR DURATION OF STUDY (ST, Species: RAT, Strain/Sex: WISTAR/MALE, Target Tissue: Type of Lesion: GLANDULAR STOMACH: ADENOCARCINOMA, Dose [Carcinogen]: 50 UG/ML IN DRINKING WATER FOR 25 WK, Promoter: NONE USED)?
A: 15/18 (83%), 11/20 (55%), 34%, not calculated

Q: What does the source list for `CCC(C)(C)C(=O)O[C@H]1C[C@@H](C)C=C2C=C[C@H](C)[C@H](CC[C@@H]3C[C@@H](O)CC(=O)O3)[C@H]21`?
A: tumour outcome (control, treated, inhibition, significance) (Carcinogen: 1,2-DIMETHYLHYDRAZINE, 540-73-8, Dose [Inhibitor]: 0, 0.02% IN DIET FOR 25 WK (STUDY DURATION: 25 WK), Route [Inhibitor]: ORAL, Species: MOUSE, Strain/Sex: ICR/FEMALE, Target Tissue: Type of Lesion: COLON: TUMOR, Dose [Carcinogen]: 10 MG/KG BW 1/WK FOR 15 WK, Promoter: NONE USED): 16/30 (53%), 12/30 (40%), 25%, not significant; tumour outcome (control, treated, inhibition, significance) (Carcinogen: 1,2-DIMETHYLHYDRAZINE, 540-73-8, Dose [Inhibitor]: 0, 0.1% IN DIET FOR 25 WK (STUDY DURATION: 25 WK), Route [Inhibitor]: ORAL, Species: MOUSE, Strain/Sex: ICR/FEMALE, Target Tissue: Type of Lesion: COLON: TUMOR, Dose [Carcinogen]: 10 MG/KG BW 1/WK FOR 15 WK, Promoter: NONE USED): 16/30 (53%), 11/30 (37%), 30%, not significant

Q: Which “tumour outcome (control, treated, inhibition, significance)” value (Carcinogen: N-BUTYL-N-(4-HYDROXYBUTYL)NITROSAMINE, 3817-11-6, Dose [Inhibitor]: 0, 30 UG/ANIMAL IN RIGHT THIGH DOES OF 1 UG/KG BW 1/D FOR 5 D WITH 4 WK INTERVALS FOR 6 MO (STUDY DURATION: 49 WK), Route [Inhibitor]: INTRAMUSCULAR, Species: RAT, Strain/Sex: ALBINO/MALE, Target Tissue: Type of Lesion: URINARY BLADDER: BENIGN TUMOR, Dose [Carcinogen]: 0.04% IN DRINKING WATER FOR FIRST 12 WK) does the source give for `NCCCC[C@H](N)C(=O)N[C@@H](CCC(=O)O)C(=O)O` (H-Lys-Glu-OH) here?
A: 13/49 (27%), 14/50 (28%), -4%, not calculated

Q: And the “tumour outcome (control, treated, inhibition, significance)” value (Carcinogen: N-BUTYL-N-(4-HYDROXYBUTYL)NITROSAMINE, 3817-11-6, Dose [Inhibitor]: 0, 30 UG/ANIMAL IN RIGHT THIGH DOES OF 1 UG/KG BW 1/D FOR 5 D WITH 4 WK INTERVALS FOR 6 MO (STUDY DURATION: 49 WK), Route [Inhibitor]: INTRAMUSCULAR, Species: RAT, Strain/Sex: ALBINO/MALE, Target Tissue: Type of Lesion: URINARY BLADDER: IN SITU CARCINOMA, Dose [Carcinogen]: 0.04% IN DRINKING WATER FOR FIRST 12 WK)?
A: 11/49 (22%), 4/50 (8%), 64%, not calculated

Q: With `O=C1CC[C@@]2(O)[C@H]3Cc4ccc(O)c5c4[C@@]2(CCN3CC2CC2)[C@H]1O5` as the compound, how does the “tumour outcome (control, treated, inhibition, significance)” value (Carcinogen: 7,12-DIMETHYLBENZ[A]ANTHRACENE, 57-97-6, Dose [Inhibitor]: 0, 75 MG/KG DIET FOR 20 D BEGINNING 10 D PRIOR TO CARCINOGEN DOSE (STUDY DURATION: 130 D), Route [Inhibitor]: ORAL, Species: RAT, Strain/Sex: SPRAGUE-DAWLEY/FEMALE, Target Tissue: Type of Lesion: MAMMARY GLAND: TUMOR, Dose [Carcinogen]: 15 MG IN 0.1 ML OF SESAME OIL ONCE, Promoter: NONE USED) read?
A: 100%, 73%, 27%, not significant

Q: What about the “tumour outcome (control, treated, inhibition, significance)” value (Carcinogen: 7,12-DIMETHYLBENZ[A]ANTHRACENE, 57-97-6, Dose [Inhibitor]: 0, 75 MG/KG DIET FOR 109 D BEGINNING 11 D POST CARCINOGEN DOSE (STUDY DURATION: 130 D), Route [Inhibitor]: ORAL, Species: RAT, Strain/Sex: SPRAGUE-DAWLEY/FEMALE, Target Tissue: Type of Lesion: MAMMARY GLAND: TUMOR, Dose [Carcinogen]: 15 MG IN 0.1 ML OF SESAME OIL ONCE, Promoter: NONE USED) of the same compound?
A: 92%, 36%, 61%, p=0.0024

Q: And the “tumour outcome (control, treated, inhibition, significance)” value (Carcinogen: 7,12-DIMETHYLBENZ[A]ANTHRACENE, 57-97-6, Dose [Inhibitor]: 0, 75 MG/KG DIET FOR 130 D BEGINNING 10 D PRIOR TO CARCINOGEN DOSE (STUDY DURATION: 130 D), Route [Inhibitor]: ORAL, Species: RAT, Strain/Sex: SPRAGUE-DAWLEY/FEMALE, Target Tissue: Type of Lesion: MAMMARY GLAND: TUMOR, Dose [Carcinogen]: 15 MG IN 0.1 ML OF SESAME OIL ONCE, Promoter: NONE USED)?
A: 83%, 46%, 45%, p=0.053

Q: What about the “tumour outcome (control, treated, inhibition, significance)” value (Carcinogen: DIMETHYLBENZ[A]ANTHRACENE, 57-97-6, Dose [Inhibitor]: 0, 1 MG/KG/D ADMINISTERED TO RESTRAINT-STRESSED RATS BEGINNING 2 DAYS POST CARCINOGEN DOSE AND CONTINUING FOR 18 WK (STU, Route [Inhibitor]: INTRAPERITONEAL, Species: RAT, Strain/Sex: F344/FEMALE, Target Tissue: Type of Lesion: MAMMARY GLAND: TUMOR, Dose [Carcinogen]: 15 MG/ML SESAME OIL ONCE, Promoter: NONE USED) of the same compound?
A: 32%, 12%, 63%, not calculated

Q: And the “tumour outcome (control, treated, inhibition, significance)” value (Carcinogen: DIMETHYLBENZ[A]ANTHRACENE, 57-97-6, Dose [Inhibitor]: 0, 1 MG/KG/D BEGINNING 2 DAYS POST CARCINOGEN DOSE AND CONTINUING FOR 18 WK (STUDY DURATION: 18 WK), Route [Inhibitor]: INTRAPERITONEAL, Species: RAT, Strain/Sex: F344/FEMALE, Target Tissue: Type of Lesion: MAMMARY GLAND: TUMOR, Dose [Carcinogen]: 15 MG/ML SESAME OIL ONCE, Promoter: NONE USED)?
A: 27%, 15%, 44%, not calculated

Q: Which results are given for `C=C(C)[C@@H]1CC=C2C(=CC[C@]3(C)[C@@H](C(CCC=C(C)C)C(=O)O)[C@H](O)C[C@@]23C)[C@@]1(C)CCC(=O)O` (stereo not given in full)?
A: tumour outcome (control, treated, inhibition, significance) (Carcinogen: 7,12-DIMETHYLBENZ[A]ANTHRACENE, 57-97-6, Dose [Inhibitor]: 0, 0.2 UMOL 2/WK FOR 19 WK BEGINNING 1 WK POST CARCINOGEN DOSE (STUDY DURATION: 20 WK), Route [Inhibitor]: DERMAL, Species: MOUSE, Strain/Sex: ICR, Target Tissue: Type of Lesion: SKIN: PAPILLOMA, Dose [Carcinogen]: 50 UG ONCE, Promoter: 12-O-TETRADECANOYLPHORBOL-13-ACETATE, 16561-29-8): 73%, 32%, 56%, not calculated; tumour outcome (control, treated, inhibition, significance) (Carcinogen: 7,12-DIMETHYLBENZ[A]ANTHRACENE, 57-97-6, Dose [Inhibitor]: 0, 0.2 UMOL IN 100 µL ACETONE:DMSO (9:1) 2/WK FOR 20 WK APPLIED 30 MIN PRIOR TO EACH CARCINOGEN DOSE (STUDY DURATION: 20, Route [Inhibitor]: DERMAL, Species: MOUSE, Strain/Sex: ICR/FEMALE, Target Tissue: Type of Lesion: SKIN: PAPILLOMA, Dose [Carcinogen]: 50 UG IN 100 µL ACETONE ONCE, Promoter: 12-O-TETRADECANOYLPHORBOL-13-ACETATE, 16561-29-8): 73%, 33%, 55%, p<0.05
